Reference: patent publication US20260226065A1, “SUBSTITUTED BENZENE COMPOUND” (DAIICHI SANKYO COMPANY, LIMITED, priority 2023, published 2026)

Target: T1, NLRP3 inflammasome (Homo sapiens, UniProt Q96P20)
T1 construct: endogenous in cells; host or cells: THP-1 (human monocyte-derived), PMA-differentiated, Nigericin-stimulated
Assay: In vitro IL-1β production test (PMA-differentiated THP-1 cells, Nigericin stimulation, AlphaLISA)
Type: cell-based
Settings: inhibition of IL-1β production; THP-1 cells differentiated with 200 nM PMA; 0.015 mM Nigericin; 2 hours
Procedure: Human monocyte-derived THP-1 cells were cultured for one day in 10% bovine serum-containing RPMI-1640 medium (Thermo #A10491-01) supplemented with 200 nM phorbol 12-myristate 13-acetate (PMA, Sigma #P8139) to induce differentiation.
NLRP3 inflammasome was induced by replacing the culture medium with bovine serum-free RPMI-1640 medium supplemented with 0.015 mM Nigericin (Sigma #SML1779) and the test compound of known concentrations.
After 2 hours, the culture medium supernatant was collected and the IL-1β protein concentration was measured using the AlphaLISA (registered trademark) assay (PerkinElmer #AL220C).
The IL-1β concentration without the addition of the test compound and with Nigericin stimulation was set as 0% inhibitory activity, and the IL-1β concentration without Nigericin stimulation was set as 100% inhibitory activity, and the inhibition rate (% inhibition) of the test compound at each added concentration was calculated.
The % inhibition value was subjected to sigmoid fitting using a logistic regression model to calculate the 50% inhibitory concentration (IC50 value).

T1 sequence (Q96P20 whole entry): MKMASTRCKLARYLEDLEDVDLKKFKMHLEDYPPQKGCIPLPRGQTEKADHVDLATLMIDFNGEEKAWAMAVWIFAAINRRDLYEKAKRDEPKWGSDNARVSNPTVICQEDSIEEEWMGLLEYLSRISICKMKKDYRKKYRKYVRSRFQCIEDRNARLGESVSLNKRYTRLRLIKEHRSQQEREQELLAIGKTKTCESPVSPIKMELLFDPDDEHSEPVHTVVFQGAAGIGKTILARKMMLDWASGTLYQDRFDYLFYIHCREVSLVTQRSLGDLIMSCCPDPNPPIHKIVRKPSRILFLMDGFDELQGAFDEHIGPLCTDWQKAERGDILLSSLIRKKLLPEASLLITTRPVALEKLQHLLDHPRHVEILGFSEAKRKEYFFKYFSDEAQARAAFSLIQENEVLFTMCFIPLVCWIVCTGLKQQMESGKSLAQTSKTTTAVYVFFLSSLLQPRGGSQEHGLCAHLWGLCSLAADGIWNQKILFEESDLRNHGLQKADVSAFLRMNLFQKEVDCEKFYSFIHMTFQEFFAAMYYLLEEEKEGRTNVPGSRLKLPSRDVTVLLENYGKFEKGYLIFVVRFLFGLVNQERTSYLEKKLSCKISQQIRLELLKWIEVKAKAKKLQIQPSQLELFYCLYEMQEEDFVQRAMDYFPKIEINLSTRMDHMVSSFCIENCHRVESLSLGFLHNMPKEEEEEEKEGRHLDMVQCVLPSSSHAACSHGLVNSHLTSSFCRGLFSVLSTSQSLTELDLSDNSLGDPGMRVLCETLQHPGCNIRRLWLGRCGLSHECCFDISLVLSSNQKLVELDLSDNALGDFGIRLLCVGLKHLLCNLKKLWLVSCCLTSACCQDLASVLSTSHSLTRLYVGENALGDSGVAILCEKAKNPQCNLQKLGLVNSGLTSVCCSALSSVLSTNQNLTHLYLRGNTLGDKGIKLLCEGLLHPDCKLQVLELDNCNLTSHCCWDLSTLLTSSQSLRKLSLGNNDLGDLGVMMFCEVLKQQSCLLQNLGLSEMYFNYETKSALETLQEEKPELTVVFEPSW

Cc1cc(Cl)cc(O)c1-c1cc2c(OC(F)F)cn([C@H]3C[C@@](C)(O)C3)c2nn1 [Example 29, 5-chloro-2-{5-(difluoromethoxy)-7-[(1s,3s)-3-hydroxy-3-methylcyclobutyl]-7H-pyrrolo[2,3-c]pyridazin-3-yl}-3-methylphenol]
IC50: 12.4 nM

Cc1cc(C(F)(F)F)cc(O)c1-c1cc2ccn(-c3ncc(F)cn3)c2nn1 [Example 84, 2-[7-(5-fluoropyrimidin-2-yl)-7H-pyrrolo[2,3-c]pyridazin-3-yl]-3-methyl-5-(trifluoromethyl)phenol]
IC50: 12.8 nM

Cc1cc(C(F)(F)F)cc(O)c1-c1cc2c(C#N)cn(C34CCCC(O)(C3)C4)c2nn1 [Example 16, 7-(5-hydroxybicyclo[3.1.1]heptan-1-yl)-3-[2-hydroxy-6-methyl-4-(trifluoromethyl)phenyl]-7H-pyrrolo[2,3-c]pyridazine-5-carbonitrile]
IC50: 8.6 nM

Cc1cc(Cl)cc(O)c1-c1cc2c(C)cn([C@H]3C[C@@](C)(O)C3)c2nn1 [Example 9, 5-chloro-2-{7-[(1s,3s)-3-hydroxy-3-methylcyclobutyl]-5-methyl-7H-pyrrolo[2,3-c]pyridazin-3-yl}-3-methylphenol]
IC50: 13.2 nM

Cc1cc(C(F)(F)F)cc(O)c1-c1cc2c(C)cn([C@@H]3CCC[C@@H](O)C3)c2nn1 [Example 54, 2-{7-[(1R,3R)-3-hydroxycyclohexyl]-5-methyl-7H-pyrrolo[2,3-c]pyridazin-3-yl}-3-methyl-5-(trifluoromethyl)phenol]
IC50: 84.3 nM

Cc1cc(C(F)(F)F)cc(O)c1-c1cc2c(nn1)N([C@@H]1CCCN(CC3CC3)C1)CC2 [Example 61, 2-{7-[(3R)-1-(cyclopropylmethyl)piperidin-3-yl]-6,7-dihydro-5H-pyrrolo[2,3-c]pyridazin-3-yl}-3-methyl-5-(trifluoromethyl)phenol]
IC50: 25.3 nM

Cc1cc(C(F)(F)F)cc(O)c1-c1cc2ccn([C@@H]3CCCN(C)C3)c2nn1 [Example 2, 3-methyl-2-{7-[(3R)-1-methylpiperidin-3-yl]-7H-pyrrolo[2,3-c]pyridazin-3-yl}-5-(trifluoromethyl)phenol]
IC50: 5.26 nM

Cc1cc(C(F)(F)F)cc(O)c1-c1cc2c(nn1)c(C1CCCN(C)C1)cn2C (racemic) [Example 94, 3-methyl-2-[5-methyl-7-(1-methylpiperidin-3-yl)-5H-pyrrolo[3,2-c]pyridazin-3-yl]-5-(trifluoromethyl)phenol]
IC50: 79.6 nM

Cc1cc(C(F)(F)F)c(F)c(O)c1-c1cc2c(C)cn([C@H]3C[C@@](C)(O)C3)c2nn1 [Example 48, 2-fluoro-6-{7-[(1s,3s)-3-hydroxy-3-methylcyclobutyl]-5-methyl-7H-pyrrolo[2,3-c]pyridazin-3-yl}-5-methyl-3-(trifluoromethyl)phenol]
IC50: 101 nM

Cc1cc(OC(F)F)cc(O)c1-c1cc2c(C#N)cn([C@H]3C[C@@](C)(O)C3)c2nn1 [Example 74, 3-[4-(difluoromethoxy)-2-hydroxy-6-methylphenyl]-7-[(1s,3s)-3-hydroxy-3-methylcyclobutyl]-7H-pyrrolo[2,3-c]pyridazine-5-carbonitrile]
IC50: 26.1 nM

Cc1cc(OC(F)F)cc(O)c1-c1cc2c(C)cn([C@H]3C[C@@](C)(O)C3)c2nn1 [Example 13, 5-(difluoromethoxy)-2-{7-[(1s,3s)-3-hydroxy-3-methylcyclobutyl]-5-methyl-7H-pyrrolo[2,3-c]pyridazin-3-yl}-3-methylphenol]
IC50: 37.6 nM

Cc1cn([C@H]2C[C@@](C)(O)C2)c2nnc(-c3c(O)cc(C(F)(F)F)cc3C#N)cc12 [Example 53, 3-hydroxy-2-{7-[(1s,3s)-3-hydroxy-3-methylcyclobutyl]-5-methyl-7H-pyrrolo[2,3-c]pyridazin-3-yl}-5-(trifluoromethyl)benzonitrile]
IC50: 275 nM

Cc1cc(C(F)(F)F)cc(O)c1-c1cc2c(C)cn(C34CCC(O)(C3)C4)c2nn1 [Example 70, 4-{3-[2-hydroxy-6-methyl-4-(trifluoromethyl)phenyl]-5-methyl-7H-pyrrolo[2,3-c]pyridazin-7-yl}bicyclo[2.1.1]hexan-1-ol]
IC50: 31.2 nM

Cc1cc(C(F)(F)F)cc(O)c1-c1cc2c(nn1)N([C@H]1C[C@@](C)(O)C1)C(C)C2 (mixture of isomers) [Example 86, 2-{7-[(1s,3s)-3-hydroxy-3-methylcyclobutyl]-6-methyl-6,7-dihydro-5H-pyrrolo[2,3-c]pyridazin-3-yl}-3-methyl-5-(trifluoromethyl)phenol]
IC50: 141 nM

Cc1cc(OC(F)F)cc(O)c1-c1cc2c3c(n([C@H]4C[C@@](C)(O)C4)c2nn1)CCC3 [Example 80, 5-(difluoromethoxy)-2-{8-[(1s,3s)-3-hydroxy-3-methylcyclobutyl]-5,6,7,8-tetrahydrocyclopenta[4,5]pyrrolo[2,3-c]pyridazin-3-yl}-3-methylphenol]
IC50: 22.4 nM

Cc1cc(F)cc(O)c1-c1cc2c(C)cn([C@H]3C[C@@](C)(O)C3)c2nn1 [Example 91, 5-fluoro-2-{7-[(1s,3s)-3-hydroxy-3-methylcyclobutyl]-5-methyl-7H-pyrrolo[2,3-c]pyridazin-3-yl}-3-methylphenol]
IC50: 125 nM

Cc1cc(C(F)(F)F)cc(O)c1-c1cc2c(C)cn(C34COCC(O)(C3)C4)c2nn1 [Example 65, 5-{3-[2-hydroxy-6-methyl-4-(trifluoromethyl)phenyl]-5-methyl-7H-pyrrolo[2,3-c]pyridazin-7-yl}-3-oxabicyclo[3.1.1]heptan-1-ol]
IC50: 47 nM

Cc1cc(C(F)(F)F)cc(O)c1-c1cc2c(nn1)N([C@@H]1CCCN(C)C1)CCN2C [Example 35, 3-methyl-2-{5-methyl-8-[(3R)-1-methylpiperidin-3-yl]-5,6,7,8-tetrahydropyrazino[2,3-c]pyridazin-3-yl}-5-(trifluoromethyl)phenol]
IC50: 25.6 nM

Cc1cc(C(F)(F)F)cc(O)c1-c1cc2c3c(n([C@H]4C[C@@](C)(O)C4)c2nn1)CCO3 [Example 83, 2-{8-[(1s,3s)-3-hydroxy-3-methylcyclobutyl]-7,8-dihydro-6H-furo[2′,3′:4,5]pyrrolo[2,3-c]pyridazin-3-yl}-3-methyl-5-(trifluoromethyl)phenol]
IC50: 9.16 nM

Cc1cc2c(c(O)c1-c1cc3c(C)cn([C@H]4C[C@@](C)(O)C4)c3nn1)CCC2 [Example 43, 5-{7-[(1s,3s)-3-hydroxy-3-methylcyclobutyl]-5-methyl-7H-pyrrolo[2,3-c]pyridazin-3-yl}-6-methyl-2,3-dihydro-1H-inden-4-ol]
IC50: 22.1 nM

CCCN1CCC[C@@H](N2CCc3cc(-c4c(C)cc(C(F)(F)F)cc4O)nnc32)C1 [Example 14, 3-methyl-2-{7-[(3R)-1-propylpiperidin-3-yl]-6,7-dihydro-5H-pyrrolo[2,3-c]pyridazin-3-yl}-5-(trifluoromethyl)phenol]
IC50: 7.87 nM

Cc1cc(Cl)cc(O)c1-c1cc2c3c(n([C@H]4C[C@@](C)(O)C4)c2nn1)CCC3 [Example 82, 5-chloro-2-{8-[(1s,3s)-3-hydroxy-3-methylcyclobutyl]-5,6,7,8-tetrahydrocyclopenta[4,5]pyrrolo[2,3-c]pyridazin-3-yl}-3-methylphenol]
IC50: 7.83 nM

CCc1cn([C@H]2C[C@@](C)(O)C2)c2nnc(-c3c(C)cc(C(F)(F)F)cc3O)cc12 [Example 44, 2-{5-ethyl-7-[(1s,3s)-3-hydroxy-3-methylcyclobutyl]-7H-pyrrolo[2,3-c]pyridazin-3-yl}-3-methyl-5-(trifluoromethyl)phenol]
IC50: 75 nM

Cc1cc(C(F)(F)F)cc(O)c1-c1cc2c(nn1)N([C@@H]1CCCN(C)C1)[C@H](C)C2 (single isomer, unassigned) [Example 55, 3-methyl-2-{(6R or 6S)-6-methyl-7-[(3R)-1-methylpiperidin-3-yl]-6,7-dihydro-5H-pyrrolo[2,3-c]pyridazin-3-yl}-5-(trifluoromethyl)phenol]
IC50: 23.8 nM

COc1cn(C23CCCC(O)(C2)C3)c2nnc(-c3c(C)cc(C(F)(F)F)cc3O)cc12 [Example 24, 5-{3-[2-hydroxy-6-methyl-4-(trifluoromethyl)phenyl]-5-methoxy-7H-pyrrolo[2,3-c]pyridazin-7-yl}bicyclo[3.1.1]heptan-1-ol]
IC50: 34.8 nM

CCN1C[C@H](F)C[C@@H](N2CCc3cc(-c4c(C)cc(C(F)(F)F)cc4O)nnc32)C1 [Example 66, 2-{7-[(3R,5R)-1-ethyl-5-fluoropiperidin-3-yl]-6,7-dihydro-5H-pyrrolo[2,3-c]pyridazin-3-yl}-3-methyl-5-(trifluoromethyl)phenol]
IC50: 16.4 nM

CCN1CCC[C@@H](N2CCc3cc(-c4c(C)cc(OC(F)(F)F)cc4O)nnc32)C1 [Example 23, 2-{7-[(3R)-1-ethylpiperidin-3-yl]-6,7-dihydro-5H-pyrrolo[2,3-c]pyridazin-3-yl}-3-methyl-5-(trifluoromethoxy) phenol]
IC50: 11.8 nM

Cc1cc(C(F)(F)F)cc(O)c1-c1cc2scc(C3CCCN(C)C3)c2nn1 (racemic) [Example 95, 3-methyl-2-[7-(1-methylpiperidin-3-yl)thieno[3,2-c]pyridazin-3-yl]-5-(trifluoromethyl)phenol]
IC50: 19.7 nM

CCN1CCC[C@@H](N2CCc3cc(-c4c(C)cc(OC(F)F)cc4O)nnc32)C1 [Example 22, 5-(difluoromethoxy)-2-{7-[(3R)-1-ethylpiperidin-3-yl]-6,7-dihydro-5H-pyrrolo[2,3-c]pyridazin-3-yl}-3-methylphenol]
IC50: 10.5 nM
